{
  "source": "the CATMoS acute toxicity set (Mansouri et al. 2021)",
  "origin": "cited, not measured here",
  "note": "Where “and” joins values, the source holds several entries; their conditions need not be identical. Equal values may be shown once.",
  "data": [
    {"experiment": "rat acute oral toxicity", "conditions": "in vivo", "values": [
      {"smiles": "c1ccc(COCc2ccccc2)cc1", "LD50": "2500 mg/kg"},
      {"smiles": "C[C@H](N)[C@H](O)c1cccc(O)c1", "LD50": "240 mg/kg"},
      {"smiles": "CC(=O)OC(C)=O", "LD50": "1780 mg/kg"},
      {"smiles": "CCn1c2ccccc2c2cc(N)ccc21", "LD50": "144 mg/kg and 234 mg/kg"},
      {"smiles": "CCN(CC)CCC(=O)N1c2ccccc2Sc2ccc(C(F)(F)F)cc21", "LD50": "860 mg/kg"},
      {"smiles": "C=C(C)C(=O)OCCCl", "LD50": "200 mg/kg"},
      {"smiles": "C1CNCCNC1", "LD50": "2830 mg/kg"},
      {"smiles": "CCOC(=S)SSSC(=S)OCC", "LD50": "235 mg/kg"},
      {"smiles": "C=C(C)CC#N", "LD50": "540 mg/kg"},
      {"smiles": "CC1NC(=S)NC1=O", "note": "(stereo unspecified)", "LD50": "1050 mg/kg"},
      {"smiles": "COC(=O)C1=C(C)NC(C)=C(C(=O)O[C@H]2CCN(Cc3ccccc3)C2)[C@H]1c1cccc([N+](=O)[O-])c1", "LD50": "105 mg/kg"},
      {"smiles": "CCOP(=O)(N=C1SCCS1)OCC", "LD50": "8.9 mg/kg"},
      {"smiles": "CCOC(=O)N1CCC=C(C=NOC)C1", "LD50": "200 mg/kg"},
      {"smiles": "CC(C)CCCCCOC(=O)CS", "LD50": "348 mg/kg"},
      {"smiles": "O=C(O)/C=C/C(=O)O", "LD50": "3850 mg/kg"},
      {"smiles": "CN1C(=O)OC(C)(C)C1=O", "LD50": "2140 mg/kg"},
      {"smiles": "C=CC(=O)OCCCCOC(=O)C=C", "LD50": "587 mg/kg"},
      {"smiles": "CNC(C)Cc1ccccc1OC", "note": "(stereo unspecified)", "LD50": "630 mg/kg"},
      {"smiles": "CCOC(=O)C(C(C)=O)C(=O)Cc1c(C)n(C(=O)c2ccc(Cl)cc2)c2ccc(OC)cc12", "note": "(stereo unspecified)", "LD50": "175 mg/kg"},
      {"smiles": "CC(C)(CNc1ccc(N=O)cc1)[N+](=O)[O-]", "LD50": "2730 mg/kg"},
      {"smiles": "Cc1cccc2sc3nncn3c12", "LD50": "250 mg/kg"},
      {"smiles": "ClC(Cl)c1cccc(Oc2ccccc2)c1", "LD50": "6000 mg/kg"},
      {"smiles": "NCCSSCCN", "LD50": "896 mg/kg"},
      {"smiles": "N=C(N)NCC1CCC(C(=O)Oc2ccccc2C(=O)OCc2ccccc2)CC1", "note": "(stereo unspecified)", "LD50": "8010 mg/kg"},
      {"smiles": "O=C1C(CCS(=O)c2ccccc2)C(=O)N(c2ccccc2)N1c1ccccc1", "note": "(stereo unspecified)", "LD50": "358 mg/kg"},
      {"smiles": "CN(C)CCOC1=Cc2ccccc2Sc2ccc(Cl)cc21", "LD50": "306 mg/kg"},
      {"smiles": "CCCCN(CCN(CCCC)C(=O)N1CCOCC1)C(=O)N1CCOCC1", "LD50": "270 mg/kg"},
      {"smiles": "CC(=O)OC(C)OC(=O)C(C)c1ccc(-c2ccccc2)c(F)c1", "note": "(stereo unspecified)", "LD50": "66 mg/kg"},
      {"smiles": "Nc1ccc(Cl)c([N+](=O)[O-])c1", "LD50": "400 mg/kg"},
      {"smiles": "CCCC/C=C\\CCCCCCOC(C)=O", "LD50": "13400 mg/kg"},
      {"smiles": "CN(C)C(CSS(=O)(=O)O)CSS(=O)(=O)O", "LD50": "333 mg/kg"},
      {"smiles": "CC(=O)C=CC1C(C)C=C(C)CC1C", "note": "(stereo unspecified)", "LD50": "5200 mg/kg"},
      {"smiles": "Cc1c(Nc2ncnc3ccccc23)c(=O)n(C)n1-c1ccccc1", "LD50": "369 mg/kg"},
      {"smiles": "C=C1CC[C@H](O)C/C1=C/C=C1\\CCC[C@]2(C)[C@@H]([C@H](C)/C=C/[C@H](C)C(C)C)CC[C@@H]12", "LD50": "10 mg/kg"},
      {"smiles": "CNC=O", "LD50": "4000 mg/kg"},
      {"smiles": "O=COCCCc1ccccc1", "LD50": "4090 mg/kg"},
      {"smiles": "Cc1ccccc1C(C)C", "LD50": "2130 mg/kg"},
      {"smiles": "CC1CC(Cl)CCC1C(=O)OC(C)(C)C", "note": "(stereo unspecified)", "LD50": "4560 mg/kg"},
      {"smiles": "COc1ccc2c3c1O[C@H]1[C@@H](OC(=O)c4cccnc4)C=C[C@H]4[C@@H](C2)N(C)CC[C@@]341", "LD50": "840 mg/kg"},
      {"smiles": "CCCCC(C)(C)[C@H](O)C=C[C@H]1[C@H](O)CC(=O)[C@@H]1CCCCC=CC(=O)OC", "LD50": "56.5 mg/kg"},
      {"smiles": "CC1CC(C)(C)OB(OC(C)CC(C)(C)OB2OC(C)CC(C)(C)O2)O1", "note": "(stereo unspecified)", "LD50": "4720 mg/kg"},
      {"smiles": "CC1OC1C", "note": "(stereo unspecified)", "LD50": "2150 mg/kg"},
      {"smiles": "CC(=O)Oc1ccccc1C(=O)OC(=O)c1ccccc1OC(C)=O", "LD50": "2200 mg/kg"},
      {"smiles": "CCc1ccc(C(=O)c2ccccc2)c(C(=O)O)c1", "LD50": "4450 mg/kg"},
      {"smiles": "O=C(OC(=O)C(Cl)Cl)C(Cl)Cl", "LD50": "2820 mg/kg"},
      {"smiles": "Nc1cccc2c(N)cccc12", "LD50": "634 mg/kg"},
      {"smiles": "FC(F)OC(Cl)C(F)(F)F", "note": "(stereo unspecified)", "LD50": "4770 mg/kg"},
      {"smiles": "CCOP(=S)(CCl)Oc1ccc(C#N)cc1OC", "note": "(stereo unspecified)", "LD50": "71 mg/kg"},
      {"smiles": "CC1CCCc2ccccc21", "note": "(stereo unspecified)", "LD50": "6700 mg/kg"},
      {"smiles": "CC(=O)OCCOCCOCCOC(C)=O", "LD50": "15600 mg/kg"},
      {"smiles": "CCCN(COC(C)=O)N=O", "LD50": "1000 mg/kg"},
      {"smiles": "C[C@H]1O[C@@H](O[C@H]2[C@@H](O)C[C@H](O[C@H]3[C@@H](O)C[C@H](O[C@H]4CC[C@@]5(C)[C@H](CC[C@@H]6[C@@H]5C[C@@H](O)[C@]5(C)[C@@H](C7=CC(=O)OC7)CC[C@]65O)C4)O[C@@H]3C)O[C@@H]2C)C[C@H](O)[C@@H]1O", "LD50": "28.3 mg/kg"},
      {"smiles": "C=CCN1CC[C@]23CCCC[C@H]2[C@H]1Cc1ccc(O)cc13", "LD50": "949 mg/kg"},
      {"smiles": "FC(F)(F)C(=NOCC1OCCO1)c1ccc(Cl)cc1", "LD50": "669 mg/kg"},
      {"smiles": "CCCCCCCCCCCC[n+]1ccc2ccccc2c1", "LD50": "230 mg/kg"},
      {"smiles": "CCCCCCC1=CC(=O)CC(c2ccc3c(c2)OCO3)C1", "note": "(stereo unspecified)", "LD50": "5200 mg/kg"}
    ]}
  ]
}
